Reference: ChEMBL document CHEMBL1125733, “Fluoronaphthyridines and -quinolones as antibacterial agents. 3. Synthesis and structure-activity relationships of new 1-(1,1-dimethyl-2-fluoroethyl), 1-[1-methyl-1-(fluoromethyl)-2-fluoroethyl], and 1-[1,1-(difluoromethyl)-2-fluoroethyl] substituted derivatives” (J Med Chem, 1991)
≈ marks a conversion by molar mass, not a printed value.

Experiments:
Klebsiella pneumoniae = assay: In vitro antibacterial activity against Klebsiella pneumoniae A 9664; assay type: functional
Streptococcus pneumoniae = assay: In vitro antibacterial activity against Streptococcus pneumoniae A 9585; assay type: functional
Enterobacter cloacae = assay: In vitro antibacterial activity against Enterobacter cloacae A 9656; assay type: functional
Morganella morganii = assay: In vitro antibacterial activity against Morganella morganii A 15153; assay type: functional
Enterococcus faecalis = assay: In vitro antibacterial activity against Enterococcus faecalis A 9809; assay type: functional
Pseudomonas aeruginosa = assay: Compound was tested in vitro for its antibacterial activity (minimum inhibitory concentration, MIC) against Pseudomonas aeruginosa A 9843; assay type: functional
Haemophilus influenzae = assay: In vitro antibacterial activity against Haemophilus influenzae A 21515; assay type: functional
Bacteroides fragilis = assay: Compound was tested in vitro for its antibacterial activity (minimum inhibitory concentration) against Bacteroides fragilis A 22862.; assay type: functional; conditions: A22862
Serratia marcescens = assay: In vitro antibacterial activity (minimum inhibitory concentration) against Serratia marcescens A 20019.; assay type: functional
Proteus mirabilis = assay: In vitro antibacterial activity (minimum inhibitory concentration, MIC) against Proteus mirabilis A 9900; assay type: functional
Staphylococcus aureus [1] = assay: In vitro antibacterial activity against Staphylococcus aureus A 24227; assay type: functional
Staphylococcus aureus [2] = assay: In vitro antibacterial activity (minimum inhibitory concentration, MIC) against Staphylococcus aureus A 9537.; assay type: functional
Escherichia coli = assay: In vitro antibacterial activity against Escherichia coli A 15119; assay type: functional

Row | SMILES | MIC (Klebsiella pneumoniae) [µg/mL] | MIC (Streptococcus pneumoniae) [µg/mL] | MIC (Enterobacter cloacae) [µg/mL] | MIC (Morganella morganii) [µg/mL] | MIC (Enterococcus faecalis) [µg/mL] | MIC (Pseudomonas aeruginosa) [µg/mL] | MIC (Haemophilus influenzae) [µg/mL] | MIC (Bacteroides fragilis) [µg/mL] | MIC (Serratia marcescens) [µg/mL] | MIC (Proteus mirabilis) [µg/mL] | MIC (Staphylococcus aureus [1]) [µg/mL] | MIC (Staphylococcus aureus [2]) [µg/mL] | MIC (Escherichia coli) [µg/mL] | S [µg/mL]
1 | CC(C)(CF)n1cc(C(=O)O)c(=O)c2cc(F)c(N3CC[C@H](N)C3)nc21.Cl | 0.03 | 0.03 | 0.13 | 0.06 | 4 | 1 | 0.5 | 16 | 0.25 | 0.5 | 0.13 | 0.03 | 0.03 | 
2 | CC(C)(CF)n1cc(C(=O)O)c(=O)c2cc(F)c(N3CCNCC3)cc21.Cl | 0.016 | 1 | 0.03 | 0.016 | 0.25 | 0.25 | 0.016 | 8 | 0.06 | 0.03 | 0.06 | 0.13 | 0.016 | 
3 | CC(CF)(CF)n1cc(C(=O)O)c(=O)c2cc(F)c(N3CCNCC3)nc21.Cl | 0.25 | 16 | 0.25 | 0.13 | 16 | 4 | 0.25 | 125 | 0.5 | 1 | 4 | 4 | 0.13 | 
4 | CC(C)(CF)n1cc(C(=O)O)c(=O)c2cc(F)c(N3C[C@H]4CC3CN4)cc21.Cl | 0.06 | 1 | 0.06 | 0.13 | 0.5 | 0.25 | 0.008 | 8 | 0.13 | 0.06 | 0.25 | 0.5 | 0.016 | 
5 | Cl.N[C@H]1CCN(c2nc3c(cc2F)c(=O)c(C(=O)O)cn3C(CF)(CF)CF)C1 | 2 | 32 | 2 | 2 | 32 | 32 | 0.25 | 125 | 2 | 2 | 8 | 4 | 0.5 | 
6 | CC(C)(C)n1cc(C(=O)O)c(=O)c2cc(F)c(N3CCNCC3)nc21 | 0.03 (≈ 0.0861 µM) | 1 (≈ 2.87 µM) | 0.06 (≈ 0.172 µM) | 0.06 (≈ 0.172 µM) | 1 (≈ 2.87 µM) | 0.5 (≈ 1.44 µM) | 0.016 (≈ 0.0459 µM) | 8 (≈ 23 µM) | 0.06 (≈ 0.172 µM) | 0.13 (≈ 0.373 µM) | 0.25 (≈ 0.718 µM) | 0.06 (≈ 0.172 µM) | 0.016 (≈ 0.0459 µM) | 820
7 | Cl.O=C(O)c1cn(C(CF)(CF)CF)c2nc(N3CC4C[C@@H]3CN4)c(F)cc2c1=O | 0.5 | 32 | 0.25 | 0.25 | 32 | 4 | 0.06 | 125 | 1 | 1 | 4 | 4 | 0.25 | 240
8 | CC(CF)(CF)n1cc(C(=O)O)c(=O)c2cc(F)c(N3CCNCC3)cc21.Cl | 0.13 | 8 | 0.25 | 0.06 | 1 | 1 | 0.06 | 16 | 0.5 | 0.13 | 2 | 1 | 0.13 | 
9 | CC(CF)(CF)n1cc(C(=O)O)c(=O)c2cc(F)c(N3CC[C@H](N)C3)cc21.CS(=O)(=O)O | 0.13 | 0.5 | 0.06 | 0.016 | 0.5 | 0.25 | 0.001 | 4 | 0.13 | 0.03 | 0.13 | 0.06 | 0.008 | 
10 | C[C@H]1C[C@H](N)CN1c1nc2c(cc1F)c(=O)c(C(=O)O)cn2C(CF)(CF)CF.Cl | 2 | 8 | 1 | 2 | 4 | 32 | 0.5 | 125 | 2 | 4 | 1 | 0.5 | 0.5 | 
11 | C[C@H]1C[C@H](N)CN1c1nc2c(cc1F)c(=O)c(C(=O)O)cn2C(C)(C)CF.Cl | 0.06 | 0.13 | 0.06 | 0.13 | 0.13 | 1 | 0.016 | 16 | 0.13 | 0.13 | 0.008 | 0.008 | 0.016 | 
12 | CC(CF)(CF)n1cc(C(=O)O)c(=O)c2cc(F)c(N3CC[C@H](N)C3)nc21.CS(=O)(=O)O | 2 | 16 | 0.5 | 0.5 | 16 | 8 | 0.25 | 125 | 2 | 4 | 4 | 8 | 0.5 | 
13 | CC(C)(CF)n1cc(C(=O)O)c(=O)c2cc(F)c(N3CC(N)C3)cc21.Cl | 0.016 | 1 | 0.06 | 0.016 | 0.5 | 0.5 | 0.06 | 2 | 0.13 | 0.06 | 0.016 | 0.016 | 0.004 | 
14 | CS(=O)(=O)O.C[C@H]1C[C@H](N)CN1c1cc2c(cc1F)c(=O)c(C(=O)O)cn2C(C)(C)CF | 0.13 | 0.25 | 0.06 | 0.5 | 0.25 | 1 | 0.016 | 4 | 0.25 | 0.13 | 0.03 | 0.03 | 0.03 | 
15 | C[C@H]1CN(c2cc3c(cc2F)c(=O)c(C(=O)O)cn3C(C)(C)CF)C[C@@H]1N | 0.13 (≈ 0.343 µM) | 0.25 (≈ 0.659 µM) | 0.03 (≈ 0.0791 µM) | 0.06 (≈ 0.158 µM) | 0.25 (≈ 0.659 µM) | 0.5 (≈ 1.32 µM) | 0.008 (≈ 0.0211 µM) | 4 (≈ 10.5 µM) | 0.13 (≈ 0.343 µM) | 0.06 (≈ 0.158 µM) | 0.06 (≈ 0.158 µM) | 0.03 (≈ 0.0791 µM) | 0.008 (≈ 0.0211 µM) | 
16 | CC(CF)(CF)n1cc(C(=O)O)c(=O)c2cc(F)c(N3CC4C[C@@H]3CN4)nc21.Cl | 0.5 | 8 | 0.13 | 0.13 | 4 | 1 | 0.016 | 32 | 0.5 | 0.5 | 2 | 2 | 0.13 | 
17 | CC(C)(C)n1cc(C(=O)O)c(=O)c2cc(F)c(N3CCNCC3)cc21 | 0.06 (≈ 0.173 µM) |  | 0.13 (≈ 0.374 µM) | 0.25 (≈ 0.72 µM) | 2 (≈ 5.76 µM) | 0.5 (≈ 1.44 µM) |  |  | 0.5 (≈ 1.44 µM) | 0.25 (≈ 0.72 µM) |  | 0.25 (≈ 0.72 µM) | 0.06 (≈ 0.173 µM) | 130
18 | Cl.O=C(O)c1cn(C(CF)(CF)CF)c2nc(N3CCNCC3)c(F)cc2c1=O | 1 | 32 | 0.5 | 0.5 | 16 | 16 | 0.5 | 125 | 1 | 2 | 8 | 8 | 0.5 | 
